From US20230270881A1, “ONCOGENIC TRIM37 IS A TARGETABLE EPIGENETIC DRIVER OF METASTASIS AND LINKS CHEMORESISTANCE AND METASTATIC FATE IN TRIPLE-NEGATIVE BREAST CANCER” (University of Virginia Patent Foundation, priority 2020, published 2023)

Tests used:
HCC1806 tumors = experiment: NSG tumor xenograft, Dox-induced TRIM37 upregulation; assay type: in vivo; conditions: mice bearing HCC1806RR subcutaneous tumors, 2 mg/kg Dox
Experimental: (§1) NSG tumor xenograft studies. All animal procedures were conducted under the accordance of the University of Virginia IACUC with approved protocol (4112 and 4222). For different cell lines, weight and aged matched female NSG mice were injected subcutaneously with 2×10^6 TNBC cells in their right flank with indicated cell line in matrigel. 2×10^6 HCC1806RR or 231-2b were injected in 100 µl volume. For Dox-induced TRIM37 upregulation studies in tumor, mice bearing ~200 mm^3 HCC1806 tumors weight matched animals were randomly assigned into groups and injected with 2 mg/kg Dox. Tumors were harvested 24 hrs. following Dox treatment. For smart nanoparticles efficiency in vivo, mice bearing ~200 mm^3 231-2b tumors weight matched animals were randomly assigned into groups and injected with control or smart nanoparticles. At the endpoint, RNA and protein lysates were prepared from isolated tumors and analyzed by western blotting.

TRIM37 = experiment: Immunoblotting of TRIM37 in treated cells; assay type: cell-based, human
Experimental: Immunoblotting. Cell extracts were prepared by lysing cell pellet in RIPA buffer supplemented with 1 mM sodium ortho-vanadate and 10 mM PMSF. To prepare protein extract from mouse tissue, it was homogenized in lysis buffer (1% SDS, 1 mM sodium ortho-vanadate, 10 mM Tris pH 7.4 and protease inhibitor). Immunoblots were probed using antibodies against TRIM37 (Abcam), PARP (Cell Signaling Technology), p21 (Cell Signaling Technology), γ-ph-H2AX (Cell Signaling Technology), RAD51C (Invitrogen), ph-ATM (Cell Signaling Technology), ph-STAT1 (Cell Signaling Technology), ph-STAT3 (Cell Signaling Technology), ph-STAT5 (Cell Signaling Technology), BIM (Abcam), FOLR1 (R&D) and α-tubulin (Invitrogen).

231-2b tumors = experiment: NSG tumor xenograft, smart nanoparticles with or without Dox; assay type: in vivo, NSG mice; conditions: 231-2b xenografts; 1.2 mg/kg nanoparticles intra-tumor every three days for 18 days; 2 mg/kg Dox two doses
Experimental: as §1
To investigate the outcome of TRIM37 targeting in clinical settings, we challenged 231-2b-derived xenografts with smart nanoparticles in combination with chemotherapy. When tumors reached the size of ~50 mm^3, animals received two doses of either 2 mg/kg Dox or vehicle (FIG. 7J). Furthermore, within each group, animals were randomly administered 1.2 mg/kg (~4×10^7nanoparticles) of smart or control nanoparticles intra-tumor every three days for 18 days (FIG. 7J).

Compound: COc1cccc2c1C(=O)c1c(O)c3c(c(O)c1C2=O)C[C@@](O)(C(=O)CO)C[C@@H]3O[C@H]1C[C@H](N)[C@H](O)[C@H](C)O1 [doxorubicin]
- TRIM37 in xenograft tumors (HCC1806 tumors): upregulated TRIM37
- TRIM37 in xenograft tumors (HCC1806 tumors; listed as dox): increased TRIM37 level
- TRIM37 expression (TRIM37; MCF7 or MCF10A cells): no increase
- TRIM37 expression (TRIM37; MDA MB 468, HCC1806 and MDA MB 231 cells): dose- and time-dependent upregulation
- tumor growth (231-2b tumors): significantly attenuated
